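Values below derive from 48-hour exposures of cells grown in 96-well plates, with endpoints linearly interpolated between the two concentrations bracketing the appropriate inhibition level. The concentration for 50% growth inhibition is given as GI50. Definition used: TGI = concentration required for complete inhibition of growth.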
Legend:
Assay in all cases: NCI tumour cell line growth inhibition, 48 h
M14 melanoma = tested on: M14 melanoma
OVCAR-5 ovarian = tested on: OVCAR-5 ovarian
HOP-92 NSCLC = tested on: HOP-92 NSCLC
IGROV1 ovarian = tested on: IGROV1 ovarian
UACC-62 melanoma = tested on: UACC-62 melanoma
HOP-62 NSCLC = tested on: HOP-62 NSCLC
HCT-116 colon = tested on: HCT-116 colon
SK-MEL-5 melanoma = tested on: SK-MEL-5 melanoma
NCI-H23 lung = tested on: NCI-H23 lung
BT-549 breast = tested on: BT-549 breast

Structure (SMILES)	TGI (M14 melanoma) [µM]	TGI (OVCAR-5 ovarian) [µM]	TGI (HOP-92 NSCLC) [µM]	TGI (IGROV1 ovarian) [µM]	TGI (UACC-62 melanoma) [µM]	TGI (HOP-62 NSCLC) [µM]	TGI (HCT-116 colon) [µM]	TGI (SK-MEL-5 melanoma) [µM]	TGI (NCI-H23 lung) [µM]	GI50 (M14 melanoma) [µM]	GI50 (OVCAR-5 ovarian) [µM]	GI50 (HOP-92 NSCLC) [µM]	GI50 (IGROV1 ovarian) [µM]	GI50 (HOP-62 NSCLC) [µM]	GI50 (HCT-116 colon) [µM]	GI50 (BT-549 breast) [µM]	TGI (BT-549 breast) [µM]	GI50 (SK-MEL-5 melanoma) [µM]	GI50 (NCI-H23 lung) [µM]	GI50 (UACC-62 melanoma) [µM]
Cc1cc2c(ccc3c(C)cc(=O)oc32)o1	> 100	> 100	> 100	> 100	> 100	> 100	> 100	> 100	> 100	–	–	–	–	–	–	–	–	–	–	–
C#Cc1cccc(N2C(=O)CCC2=O)c1	11.7	32.5	–	37.9	33.8	–	23.1	37.1	24.5	–	–	–	–	–	–	–	–	–	–	–
COc1ccc2c(CN3CCCCC3CO)cc3cc(OC)c(OC)cc3c2c1 (stereo not given)	25	12	9.82	61.1	25.7	20.7	13.7	20.6	16.9	–	–	–	–	–	–	–	–	–	–	–
COCCCNC(=O)C1C(=O)N(CCCOC)C(=O)/C1=N\N (stereo not given)	> 100	> 100	> 100	–	> 100	> 100	> 100	> 100	> 100	–	–	–	–	–	–	–	–	–	–	–
O=C1c2ccccc2C(Br)(Br)c2ccccc21	> 31.6	> 31.6	> 100	> 31.6	> 100	–	> 31.6	> 31.6	> 100	–	–	–	–	–	–	–	–	–	–	–
Cc1ccc(S(=O)(=O)N/N=C(\c2nc3ccc(Cl)cc3[nH]c2=O)C(O)c2cccc([N+](=O)[O-])c2)cc1 (stereo not given)	> 100	> 100	> 100	> 100	> 100	> 100	> 100	> 100	> 100	–	–	–	–	–	–	–	–	–	–	–
COc1ccc(C(=O)/C=C/c2ccc(C)cc2)cc1OC	26.5	29.6	27	58.6	–	27.8	17.7	25	22.8	13.7	16.1	12.6	12.3	14.6	4.69	14.9	51.5	12.5	10.4	–
CN(C)CC(C)(C)C(=O)/C=C/c1ccc(/C=C/C(=O)C(C)(C)CN(C)C)cc1	3.21	3.51	2.22	3.33	3.17	4.51	2.55	5.13	3.93	–	–	–	–	–	–	–	–	–	–	–
CCC[CH2][Sn]1([CH2]CCC)[O]CC(Cc2ccccc2)[O]1 (stereo not given)	5.51	23.3	8.67	13.8	3.69	19.4	13.5	14.2	4.05	2.3	11.2	2.9	3.8	4.04	3.75	–	–	3.09	1.53	1.7
Cc1ccc(-c2csc(/N=C3\C(=O)Nc4ccccc43)n2)cc1	2.79	4.57	3.29	4.55	2.83	–	2.79	3.02	2.98	1.32	1.93	1.24	1.53	–	1.35	1.49	3.06	1.63	1.46	1.37
CC(=O)[O][Ga]([Cl])[O]C(C)=O	> 100	> 100	> 100	> 100	> 100	–	> 100	> 100	> 100	> 100	> 100	> 100	> 100	–	> 100	–	–	> 100	> 100	> 100
COc1cc2c(c(OC)c1OC)-c1ccc(SC)c(=O)cc1[C@@H](NCc1ccc(C#N)cc1)CC2	–	> 100	> 100	> 100	–	> 100	0.0215	15.6	0.00885	–	3.15	–	–	–	–	–	–	–	–	–
Nc1ccccc1C(=O)CC1OC(=O)c2ccccc21 (stereo not given)	> 100	> 100	> 100	> 100	> 100	> 100	> 100	–	–	–	–	–	–	–	–	–	90.5	–	–	–
COC(=O)N(C(=O)OC)C(C(=O)O)C(C)C (stereo not given)	> 100	> 100	> 100	–	–	> 100	–	–	> 100	–	–	–	–	–	–	–	–	–	–	–
CC(C)(C)N=NNc1cn(C2OC(CO)C(O)C2O)c(=O)[nH]c1=O (stereo not given)	> 100	> 100	> 100	> 100	> 100	> 100	> 100	> 100	> 100	–	–	–	–	–	–	–	–	–	–	–
CC(C)CCC(=O)c1ccoc1	> 100	> 100	> 100	> 100	> 100	> 100	> 100	> 100	> 100	–	–	–	–	–	–	–	–	–	–	–
O=c1nc(/C=C/c2ccccc2Cl)cc2n1CCN2CCO	> 100	> 100	> 100	> 100	> 100	> 100	> 100	–	–	–	–	–	–	–	–	–	–	–	–	–
Cc1ccc(SC(CCC(Sc2ccc(C)cc2)Sc2ccc(C)cc2)Sc2ccc(C)cc2)cc1	> 100	–	> 100	> 100	> 100	> 100	> 100	> 100	> 100	–	–	–	–	–	–	–	–	–	–	–
CCOC(=O)N1CCN(c2nc(Nc3cc(C)[nH]n3)c3ccccc3n2)CC1	28.9	> 100	11.9	35.5	–	> 100	21.3	21.4	–	9.16	3.25	1.92	0.638	2.81	2.13	3.85	16.2	7.94	–	–
CC1CCC2(CC1)NN=c1s/c(=C\c3ccc(O)cc3)c(=O)n1N2 (stereo not given)	> 100	–	–	> 100	> 100	> 100	> 100	> 100	> 100	–	–	–	–	–	–	–	–	–	–	–
COc1ccc(OC)c(/C(C)=N/NC(N)=S)c1	> 100	> 100	> 100	> 100	> 100	> 100	> 100	> 100	> 100	–	–	–	–	–	–	–	–	–	–	–

Source: PubChem BioAssay (NCI)
